Laboratory results taken from patent US12269793B2, “Affinity illudofulvene conjugates” (AF Chemicals, LLC, priority 2019, dated 2025).
Where two headings read alike, the source gives them in different places. Where a SMILES comes first, the peptide text is derived from it. [ ]: non-standard residue; d: D form. The star is where a group is joined. X4 = CC1=C(C*)C2=C(C)C3(CC3)[C@@](C)(O)C(=O)C2=C1

Legend:
Test in all cases: cells
[1] = test system: MV522 Target Cell Line (lung-derived adenocarcinoma); conditions: MV522, 2 h, read-out: Mean IC50 value
[2] = test system: 8392B Nontarget Cell Line (hematopoietic); conditions: 2 h
[3] = test system: MV522 Target Cell Line (lung-derived adenocarcinoma); conditions: MV522, 48 h, read-out: Mean IC50 value
[4] = read-out: Mean IC50 value, 8392B Nontarget Cell Line, 2 hr exposure, ± SD, N = 3 unless otherwise indicated

Structure (SMILES) | IC50 [1] [µM] | IC50 [2, 4] [µM] | IC50 [3] [µM] | IC50 ([2]; read-out: Mean IC50 value) [µM]
CC(=O)OCC1=C(CO)C=C2C(=O)[C@](C)(O)C3(CC3)C(C)=C21 [Analog 078] | 20.4 ± 6.3 | > 100 |  | 
COCC1=C(CO)C=C2C(=O)[C@](C)(O)C3(CC3)C(C)=C21 [Analog 081] | > 80 | > 80 |  | 
CC1=C(CC2CC(C=O)CC(C=O)C2O)C2=C(C)C3(CC3)[C@@](C)(O)C(=O)C2=C1 (stereo partly shown) [Analog 013] | 5.1 ± 0.7 |  |  | 
CC1=C(Br)C2=C(C)C3(CC3)[C@@](C)(O)C(=O)C2=C1 [Analog 004] |  |  | 0.6 | 
CC1=C2C(=CC(C)(C)[C@@H]2OC(=O)CCCC(=O)O)C(=O)[C@](C)(O)C12CC2 [Analog 106] | 5.2 ± 1 | > 83 |  | 
CC(=O)N[C@@H](CSCC1=CC=C2C(=O)[C@](C)(O)C3(CC3)C(C)=C12)C(=O)N[C@@H](C)c1ccccc1 [Analog 065] | 6.2 ± 1.1 |  |  | 
CC1=C(CCC=NNS(=O)(=O)c2ccc(C)cc2)C2=C(C)C3(CC3)[C@@](C)(O)C(=O)C2=C1 [Analog 123] |  |  | 0.6 ± 0.06 | 
CC1=C2C(=C[C@@]3(C)COCO[C@@H]23)C(=O)[C@](C)(O)C12CC2 [Analog 014] | 0.115 ± 0.03 | 9.65 ± 0.2 |  | 
CC1=C2C(=C[C@@](C)(COC(=O)c3cc([N+](=O)[O-])cc([N+](=O)[O-])c3)C2OC(=O)CCCC(=O)O)C(=O)[C@](C)(O)C12CC2 (stereo partly shown) [Analog 118] |  | 24.5 ± 4.5 |  | 
CC1=C2C(=O)[C@](C)(CO)C=C2C(=O)[C@](C)(O)C12CC2 [Analog 099] | 8.4 ± 1.1 | 4 ± 0.4 |  | 
CC(=O)OCC1=CC2=C(C)C3(CC3)[C@@](C)(O)C(=O)C2=C1 [Analog 075] | 19.6 ± 9.7 | 62 ± 3.6 |  | 
CC1=C(CCC=NNc2ccccc2)C2=C(C)C3(CC3)[C@@](C)(O)C(=O)C2=C1 [Analog 122] |  | 14.5 ± 1.2 |  | 
CC1=C2C=C(CO)C=C2C(=O)[C@](C)(O)C12CC2 [Analog 062] |  | 37.1 ± 2.3 | 0.66 ± 0.2 | 
CC(=O)OCC1=C(C)C=C2C(=O)[C@](C)(O)C3(CC3)C(C)=C21 [Analog 034] |  | > 100 | 0.49 ± 0.04 | 
COCC1=C(COC)C2=C(C)C3(CC3)[C@@](C)(O)C(=O)C2=C1 [Analog 082] | 50.6 ± 7.1 | > 100 |  | 
CC1=C(CSC[C@H](N)C(=O)N[C@@H](CC(N)=O)C(=O)NCC(=O)N[C@@H](CCCNC(=N)N)C(=O)N[C@@H](CS)C(=O)O)C2=C(C)C3(CC3)[C@@](C)(O)C(=O)C2=C1 [Analog 102] (H-C(X4)NGRC-OH) | > 13 |  |  | 
CC1=C(CSC[C@H](NC(=O)CC[C@@H](N)C(=O)O)C(=O)NCC(=O)O)C2=C(C)C3(CC3)[C@@](C)(O)C(=O)C2=C1 [Analog 089] | 19.3 ± 5.7 | > 60 | 15.5 ± 2.8 | 
CC1=C2C(=CC(CO)=C2CO)C(=O)[C@](C)(O)C12CC2 [Analog 063] |  |  | 0.58 ± 0.25 | 
COC(CCC1=C(C)C=C2C(=O)[C@](C)(O)C3(CC3)C(C)=C21)OC [Analog 039] |  | 24.6 ± 2.4 | 0.6 ± 0.04 | 
COC(=O)CSCC1=C(C)C(SCC(=O)OC)C2(O)C(=O)[C@](C)(O)C3(CC3)C(C)=C12 (stereo partly shown) [Analog 031] |  |  | > 3 | 
CC1=C(CO[C@@H]2O[C@@H](CO)[C@H](O)[C@@H](O)[C@@H]2O)C2=C(C)C3(CC3)[C@@](C)(O)C(=O)C2=C1 [Analog 018] | 8.8 ± 2.9 |  |  | 
CC1=C2C(=CC(C)(C)[C@@H]2OC(=O)CCCC(=O)Oc2ccc3c(c2)CCC2C3CC[C@]3(C)C(=O)CCC23)C(=O)[C@](C)(O)C12CC2 (stereo partly shown) [Analog 107] | > 50 |  |  | > 50
C/C(C=O)=C1\[C@@H](O)C[C@]1(C)[C@H]1CC(C)(C)C[C@@H]1O [Analog 105] | 7.3 ± 1.2 |  | 2.1 ± 0.4 | > 100
CC1=C(CSCC(O)CO)C2=C(C)C3(CC3)[C@@](C)(O)C(=O)C2=C1 (stereo partly shown) [Analog 032] | 0.6 ± 0.19 | > 30 |  | 
CC1=C(CCC=NNC(N)=O)C2=C(C)C3(CC3)[C@@](C)(O)C(=O)C2=C1 [Analog 121] |  | 15.2 ± 6 |  | 

Structure (SMILES) | IC50 [1] [µM] | IC50 [2, 4] [µM] | IC50 [3] [µM] | IC50 ([2]; read-out: Mean IC50 value) [µM]
CC(=O)OCC1=C(COC(C)=O)C2=C(C)C3(CC3)[C@@](C)(O)C(=O)C2=C1 [Analog 076] |  | 39.5 ± 7.2 |  | 
CC1=C(COCCO)C2=C(C)C3(CC3)[C@@](C)(O)C(=O)C2=C1 [Analog 022] |  | 31.7 ± 1.4 |  | 
CC1=C(CSCC[C@H](N)C(=O)O)C2=C(C)C3(CC3)[C@@](C)(O)C(=O)C2=C1 [Analog 097] |  | > 82 |  | 
CC1=C(CSCC(N)C(=O)O)C2=C(C)C3(CC3)[C@@](C)(O)C(=O)C2=C1 (stereo partly shown) [Analog 037] |  | > 85 | 29.2 ± 2.3 | 
CC(=O)O[C@@]1(C)C(=O)C2=CC(C)=C(CO)C2=C(C)C12CC2 [Analog 015] |  | 0.81 ± 0.26 | 0.48 ± 0.11 | 
COC(C)(C)OCC1=C(C)C=C2C(=O)[C@](C)(O)C3(CC3)C(C)=C21 [Analog 021] |  | 34.4 ± 9.4 | 0.93 ± 0.25 | 
CC1=C(C=NO)C2=C(C)C3(CC3)[C@@](C)(O)C(=O)C2=C1 [Analog 126] |  | > 30 |  | 
CC1=C(COC(C)(C)C)C2=C(C)C3(CC3)[C@@](C)(O)C(=O)C2=C1 [Analog 116] | 0.4 ± 0.1 | 7 ± 0.4 |  | 
COC(=O)CSCC1=C(C)C=C2C(=O)[C@](C)(O)C3(CC3)C(C)=C21 [Analog 025] |  | > 25 |  | 
CC1=C(CCC(O)C#N)C2=C(C)C3(CC3)[C@@](C)(O)C(=O)C2=C1 (stereo partly shown) [Analog 127] | 0.87 ± 0.03 | > 30 |  | 
CC(=O)ON=CCCC1=C(C)C=C2C(=O)[C@](C)(O)C3(CC3)C(C)=C21 [Analog 124] |  | > 30 | 0.87 ± 0.35 | 
COCC1=CC2=C(C)C3(CC3)[C@@](C)(O)C(=O)C2=C1 [Analog 079] |  | > 100 |  | 
CC1=C2C=CC=C2C(=O)C2(OCCO2)C12CC2 [Analog 033] |  | 29.9 ± 3.3 | 4.6 ± 0.2 | 
CC1=C(CCC(=O)O)C2=C(C)C3(CC3)[C@@](C)(O)C(=O)C2=C1 [Analog 038] | 0.75 ± 0.06 | 24.9 ± 8 |  | 
CC(=O)OCC1=C(CO)C2=C(C)C3(CC3)[C@@](C)(O)C(=O)C2=C1 [Analog 077] | 9.2 ± 1.2 |  |  | 
CC(=O)N[C@@H](CSCC1=C(C)C=C2C(=O)[C@](C)(O)C3(CC3)C(C)=C21)C(=O)N[C@@H](CC(C)C)C(=O)N[C@@H](CC(C)C)C(=O)N[C@@H](C=O)Cc1ccccc1 [Analog 085] (Ac-C(X4)LL[dF]-aldehyde) | > 40 |  | > 40 | 
COCC1=C(C)C=C2C(=O)[C@](C)(O)C3(CC3)C(C)=C21 [Analog 080] | 8.8 ± 2.4 | > 100 |  | 
CC1=C(CSCc2ccccc2)C2=C(C)C3(CC3)[C@@](C)(O)C(=O)C2=C1 [Analog 024] |  | 12.8 ± 2.1 |  | 
COC(=O)CSCC1=C(C)C(SCC(=O)OC)=C2C(=O)[C@](C)(O)C3(CC3)C(C)=C12 [Analog 030] |  |  | > 3 | 
CC1=C2C(=CC(C)(C)[C@@H]2OC(=O)CCCC(=O)Oc2ccc3c(c2)CCC2C3CC[C@]3(C)C(O)CCC23)C(=O)[C@](C)(O)C12CC2 (stereo partly shown) [Analog 109] | > 50 |  |  | > 50
CC1=C2C=CC=C2[C@@H](O)C2(OCCO2)C12CC2 [Analog 060] | 19.4 ± 1.8 |  |  | 27.6 ± 3
CC1=C2C=CC=C2C(=O)C(O)C12CC2 (stereo not shown) [Analog 035] | 5.6 ± 0.6 | > 150 |  | 
CC1=C2C(=CC3=C2COCOC3)C(=O)[C@](C)(O)C12CC2 [Analog 104] |  | 36.4 ± 6.5 |  | 
CC1=C(COCC2=C(C)C=C3C(=O)[C@](C)(O)C4(CC4)C(C)=C32)C2=C(C)C3(CC3)[C@@](C)(O)C(=O)C2=C1 [Analog 017] |  | 14.7 ± 0.9 | 0.32 ± 0.06 | 
